According to article PMC12638379, “An innovative approach to development of new pyrazolylquinolin-2-one hybrids as dual EGFR and BRAF^V600E inhibitors” (Molecular Diversity, 2025):
Like-named read-outs stand apart in the source and are kept apart here.

Key:
[1] = test system: lung cancer (HOP-92) cell line; assay: MTT antiproliferative assay, HOP-92; type: cell-based, human; settings: for viability at 0.4 µM / viability at 1.6 µM / viability at 6.3 µM / viability at 25 µM / viability at 100 µM / IC50: Homo sapiens; for viability at 0.4 µM / viability at 1.6 µM / viability at 6.3 µM / viability at 25 µM / viability at 100 µM: HOP-92, HOP-92, MTT
Description: […]. […] See Appendix B.
After 24 h of culture incubation and supernatants discarded.

Bcl-2 = Bcl-2 level in HOP-92 cells (RT-PCR fold change); type: cell-based, human; settings: for Gene Expression FLD 2^ ΔΔCT bcl2: vs GAPDH, E=1.869, control = 1
Description: (§1) In the depicted findings, compound 4e affected Bcl-2, caspase-3, and caspase-9, increasing the expression of caspase-3/9 and decreasing the expression of Bcl-2, confirming the apoptotic status.
(§2) Researcher : Dr.Mohamed Hawas email: mohhawwas80@gmail.com mob. 01151345909 Assay : Cell Cycle Analysis mohamedhassan.pharm.ast@azhr.edu.eg Assay : RT-PCR Samples : 02 SamplesCell lines : ----Ref. : ----Date : 12-06-2023Reader : Rotorgene RT- PCR system Kit used : Qiagen RNA extraction/BioRad syber green PCR MMXSolvent : DMSOAssay samples : Cell Lysate
Mix all reagents thoroughly without foaming before use. Wash the microwells twice with approximately 300 μL Wash Buffer per well with thorough aspiration of microwell contents between washes. Take caution not to scratch the surface of the microwells. After the last wash, empty the wells and tap microwell strips on absorbent pad or paper towel to remove excess Wash Buffer. Use the microwell strips immediately after washing or place upside down on a wet absorbent paper for not longer than 15 minutes. […] Add 100 μL of Sample Diluent in duplicate to all standard wells and to the blank wells. Prepare standard (1:2 dilution) in duplicate ranging from 32 ng/mL to 0.5 ng/mL. Add 100 μL of Sample Diluent, in duplicate, to the blank wells. Add 80 μL of Sample Diluent, in duplicate, to the sample wells. Add 20 μL of each Sample, in duplicate, to the designated wells. Add 50 μL of diluted biotin-conjugate to all wells, including the blank wells. […] The point, at which the substrate reaction is stopped, is often determined by the ELISA reader. Many ELISA readers record absorbance only up to 2.0 O.D. Therefore, the color development within individual microwells must be watched by the person running the assay and the substrate reaction stopped before positive wells are no longer properly detectable. […] Results must be read immediately after the Stop Solution is added or within one hour if the microwell strips are stored at 2 - 8°C in the dark. Read absorbance of each microwell on a spectrophotometer using 450 nm as the primary wave length.

caspase-9 = assay: Caspase-9 level in HOP-92 cells (RT-PCR fold change); type: cell-based, human; settings: for Gene Expression FLD 2^ ΔΔCT Casp9: vs GAPDH, E=1.869, control = 1
Description: as §1, §2
Cells were obtained from American Type Culture Collection, cells were grown in RPMI 1640 containing 10% fetal bovine serum at 37°C, stimulated with the compounds to be tested […], and lysed with Cell Extraction Buffer. This lysate was diluted in Standard Diluent Buffer over the range of the assay and measured for human active caspase-8 or 9 content. […] The absorbance of each microwell was read on a spectro-photometer at 450 nm. A standard curve is prepared from 7 human Caspases standard dilutions and human Caspase-8 or 9 concentration determined.

caspase-3 = assay: Caspase-3 level in HOP-92 cells (RT-PCR fold change); type: cell-based, human; settings: for Gene Expression FLD 2^ ΔΔCT Casp3: vs GAPDH, E=1.869, control = 1
Description: as §1, §2
Allow all reagents to reach room temperature before use. Gently mix all liquidreagents prior to use. Determine the number of 8-well strips needed for the assay. Insert these in the frame(s) for current use. Add 100 μl of the Standard Diluent Buffer to the zero standard wells. Well(s) reserved for chromogen blank should be left empty. Add 100 μl of standards and controls or diluted samples to the appropriate microtiter wells. The sample dilution chosen should be optimized for each experimental system. Tap gently on side of plate to mix. Cover wells with plate cover and incubate for 2 hours at room temperature. Thoroughly aspirate or decant solution from wells and discard the liquid, Wash wells 4 times. Pipette 100 μl of Caspase-3 (Active) Detection Antibody solution into each well except the chromogen blank(s). Tap gently on the side of the plate to mix. Cover plate with plate cover and incubate for 1 hour at room temperature. Thoroughly aspirate or decant solution from wells and discard the liquid, Wash wells 4 times. Add 100 μl Anti-Rabbit IgG HRP Working Solution to each well except the chromogen blank(s). Prepare the working dilution as described in Preparing IgG HRP. Cover wells with the plate cover and incubate for 30 minutes at room temperature. Thoroughly aspirate or decant solution from wells and discard the liquid. Wash wells 4 times. Add 100 μl of Stabilized Chromogento each well. The liquid in the wells will begin to turn blue. Incubate for 30 minutes at room temperature and in the dark. The incubation time for chromogen substrate is often determined by the microtiter platereader used. Many plate readers have the capacity to record a maximum optical density (O.D.) of 2.0. The O.D. values should be monitored and the substrate reaction stopped before the O.D. of the positive wells exceeds the limits of the instrument. The O.D. values at 450 nm can only be read after the Stop Solution has been added to each well. […] Read the absorbance of each well at 450 nm having blanked the plate reader against a chromogen blank composed of 100 μl each of StabilizedChromogenand Stop Solution. Read the plate within 2 hours after adding the Stop Solution. […] Read the concentrations for unknown samples and controls from the standard curve. […]

in vitro = settings: human, % viability
[2] = HOP-92, MTT, read-out: Antiproliferative activity IC50 ± SEM, HOP-92

## C/C(=N\Nc1ccc(S(N)(=O)=O)cc1)c1cnn(-c2cc(=O)[nH]c3ccc(Cl)cc23)c1C [Compound 4d, (E)-4-(2-(1-(1-(6-chloro-2-oxo-1,2-dihydroquinolin-4-yl)-5-methyl-1H-pyrazol-4-yl)ethylidene)hydrazineyl)benzenesulfonamide]
[1]; HOP-92, MTT, 0.4uM, listed as Ws4, 0.4 µM
  % viability: 85.21%
[1]; HOP-92, MTT, 1.6uM, listed as Ws4, 1.6 µM
  % viability: 75.93%
[1]; HOP-92, MTT, 6.3uM, listed as Ws4, 6.3 µM
  % viability: 64.52%
[1]; HOP-92, MTT, 25uM, listed as Ws4, 25 µM
  % viability: 52.12%
[1]; HOP-92, MTT, 100uM, listed as Ws4, 100 µM
  % viability: 42.18%
[1]; 0.4uM, read-out: % viability
  viability at 0.4 µM: 85.2%
[1]; 1.6uM, read-out: % viability
  viability at 1.6 µM: 75.9%
[1]; 6.3uM, read-out: % viability
  viability at 6.3 µM: 64.5%
[1]; 25uM, read-out: % viability
  viability at 25 µM: 52.1%
[1]; 100uM, read-out: % viability
  viability at 100 µM: 42.2%
[1]; [2]
  IC50: 36.5 ± 1.46 µM

## C/C(=N\Nc1ccc(S(N)(=O)=O)cc1)c1cnn(-c2cc(=O)[nH]c3ccc(Br)cc23)c1C [Compound 4e, (E)-4-(2-(1-(1-(6-bromo-2-oxo-1,2-dihydroquinolin-4-yl)-5-methyl-1H-pyrazol-4-yl)ethylidene)hydrazineyl)benzenesulfonamide]
[1]; HOP-92, MTT, 0.4uM, listed as Ws5, 0.4 µM
  % viability: 71.413%
[1]; HOP-92, MTT, 1.6uM, listed as Ws5, 1.6 µM
  % viability: 60.375%
[1]; HOP-92, MTT, 6.3uM, listed as Ws5, 6.3 µM
  % viability: 47.848%
[1]; HOP-92, MTT, 25uM, listed as Ws5, 25 µM
  % viability: 34.437%
[1]; 0.4uM, read-out: % viability
  viability at 0.4 µM: 71.4%
[1]; 1.6uM, read-out: % viability
  viability at 1.6 µM: 60.4%
[1]; 6.3uM, read-out: % viability
  viability at 6.3 µM: 47.9%
[1]; 25uM, read-out: % viability
  viability at 25 µM: 34.4%
[1]; 100uM, read-out: % viability
  viability at 100 µM: 26.5%
[1]; HOP-92, HOP-92, concentration used in RT-PCR, read-out: IC50
  IC50: 4.98 µM
[1]; HOP-92, HOP-92, concentration used in apoptosis assay, read-out: Conc IC50
  IC50: 4.98 µM
[1]; HOP-92, HOP-92, concentration used in cell cycle analysis, read-out: IC50
  IC50: 4.98 µM
[1]; [2]
  IC50: 4.98 ± 0.2 µM
Bcl-2; control = 1
  RT-PCR Fold Change FLD Bcl2: 0.299
Bcl-2
  Gene Expression FLD 2^ ΔΔCT bcl2: 0.2991
caspase-9; control = 1
  RT-PCR Fold Change FLD Casp9: 3.082
caspase-9
  Gene Expression FLD 2^ ΔΔCT Casp9: 3.0825
caspase-9; vs untreated control
  RT-PCR Fold Change Casp-9: 3.082 fold
caspase-3; control = 1
  RT-PCR Fold Change FLD Casp3: 4.716
caspase-3
  Gene Expression FLD 2^ ΔΔCT Casp3: 4.7162
caspase-3; vs untreated control
  RT-PCR Fold Change Casp-3: 4.716 fold

## C/C(=N\Nc1ccc(C(=O)O)cc1)c1cnn(-c2cc(=O)[nH]c3ccccc23)c1C [Compound 4f, (E)-4-(2-(1-(5-methyl-1-(2-oxo-1,2-dihydroquinolin-4-yl)-1H-pyrazol-4-yl)ethylidene) hydrazineyl)benzoic acid]
[1]; HOP-92, MTT, 0.4uM, listed as ws6, 0.4 µM
  % viability: 83.3554%
[1]; HOP-92, MTT, 1.6uM, listed as ws6, 1.6 µM
  % viability: 74.4032%
[1]; HOP-92, MTT, 6.3uM, listed as ws6, 6.3 µM
  % viability: 64.3236%
[1]; HOP-92, MTT, 100uM, listed as ws6, 100 µM
  % viability: 35.3448%
[1]; 0.4uM, read-out: % viability
  viability at 0.4 µM: 83.4%
[1]; 1.6uM, read-out: % viability
  viability at 1.6 µM: 74.4%
[1]; 6.3uM, read-out: % viability
  viability at 6.3 µM: 64.3%
[1]; 25uM, read-out: % viability
  viability at 25 µM: 51.8%
[1]; 100uM, read-out: % viability
  viability at 100 µM: 35.3%
[1]; [2]
  IC50: 24.9 ± 1.9 µM

## C/C(=N\Nc1ccc(C(=O)O)cc1)c1cnn(-c2cc(=O)[nH]c3ccc(C)cc23)c1C [Compound 4g, (E)-4-(2-(1-(5-methyl-1-(6-methyl-2-oxo-1,2-dihydroquinolin-4-yl)-1H-pyrazol-4-yl)ethylidene)hydrazineyl)benzoic acid]
[1]; HOP-92, MTT, 25uM, listed as Ws7, 25 µM
  % viability: 48.02%
[1]; HOP-92, MTT, 100uM, listed as Ws7, 100 µM
  % viability: 33.71%
[1]; 0.4uM, read-out: % viability
  viability at 0.4 µM: 78%
[1]; 1.6uM, read-out: % viability
  viability at 1.6 µM: 67%
[1]; 6.3uM, read-out: % viability
  viability at 6.3 µM: 56.5%
[1]; 25uM, read-out: % viability
  viability at 25 µM: 48%
[1]; 100uM, read-out: % viability
  viability at 100 µM: 33.7%
[1]; [2]
  IC50: 14.7 ± 0.66 µM

## CN[C@@H]1C[C@H]2O[C@@](C)([C@@H]1OC)n1c3ccccc3c3c4c(c5c6ccccc6n2c5c31)C(=O)NC4 [Staurosporine, reference compound]
[1]; HOP-92, MTT, 0.4uM, listed as STA
  % viability: 69.37%
[1]; HOP-92, MTT, 1.6uM, listed as STA
  % viability: 61.2%
[1]; HOP-92, MTT, 6.3uM, listed as STA
  % viability: 43.16%
[1]; HOP-92, MTT, 100uM, listed as STA
  % viability: 17.16%
[1]; 0.4uM
  viability at 0.4 µM: 69.4%
[1]; 1.6uM
  viability at 1.6 µM: 61.2%
[1]; 6.3uM
  viability at 6.3 µM: 43.2%
[1]; 25uM
  viability at 25 µM: 24.7%
[1]; 100uM
  viability at 100 µM: 17.2%
[1]; [2]
  IC50: 3.17 ± 0.19 µM
[1]; HOP-92, concentration used in RT-PCR, read-out: IC50
  IC50: 3.17 µM
Bcl-2
  Gene Expression FLD 2^ ΔΔCT bcl2: 0.3265
caspase-9
  Gene Expression FLD 2^ ΔΔCT Casp9: 5.5143
caspase-3
  Gene Expression FLD 2^ ΔΔCT Casp3: 6.9067
In vitro
  viability at 0.4 µM: 84.6%
  viability at 6.3 µM: 56.2%
  viability at 25 µM: 46.8%
In vitro; WI38, 1.6uM (log conc. 0.19)
  viability at 1.6 µM: 68.1%
In vitro; WI38, 100uM (log conc. 2)
  viability at 100 µM: 37.4%
